This is an account of results in US10570149B2, “Tricyclic heterocylic derivatives” (MERCK PATENT GMBH, priority 2016, dated 2020).

Read-outs that look alike come from different tables or passages of the source.

By IC50 is commonly meant the concentration that inhibits the measured activity by half.

For assay [1], the target named is T1, ATR/ATRIP (Homo sapiens, UniProt Q13535).
T1 construct: human ATR, full length, GenBank ID: NM_001184.3; p53: Sf21 insect cells
As to the kind of experiment: ATR/ATRIP kinase assay (TR-FRET, p53 phosphorylation). Type of assay: biochemical. The protocol: ATR/ATRIP Kinase Assay—Measurement of ATR/ATRIP Inhibition
The IC50 value was determined by an ATR/ATRIP enzymatic assay. The assay comprises two steps: the enzymatic reaction and the detection step. First, a mixture of ATR/ATRIP protein (Ataxia Telangiectasia and Rad3-related protein/ATR interacting protein), the compound in question at different concentrations, p53 as substrate protein and adenosine triphosphate (ATP) are incubated in assay buffer. ATR phosphorylates p53 at Ser15 and other residues. The amount of phosphorylated p53 is then detected using specific antibodies and the TR-FRET assay technology.
In detail: The ATR/ATRIP enzymatic assay is performed as a TR-FRET-(HTRF™, Cisbio Bioassays) based 384-well assay. In a first step, purified human recombinant ATR/ATRIP (human ATR, full length, GenBank ID: NM_001184.3, and human ATRIP, full length, GenBank ID AF451323.1, co-expressed in a mammalian cell line) is incubated in assay buffer for 15 minutes at 22° C. with test compound at different concentrations or without test compound (as a negative control). The assay buffer contains 25 mM HEPES pH 8.0, 10 mM Mg(CH3COO)2, 1 mM MnCl2, 0.1% BSA, 0.01% Brij® 35, and 5 mM dithiothreitol (DTT). […] Then, in a second step, purified human recombinant cmyc-tagged p53 (human p53, full length, GenBank ID: BC003596, expressed in Sf21 insect cells) and ATP are added and the reaction mixture is incubated for 25-35 minutes, typically 25 minutes, at 22° C. The pharmacologically relevant assay volume is 5 μl. The final concentrations in the assay during incubation of the reaction mixture are 0.3-0.5 nM, typically 0.3 nM, ATR/ATRIP, 50 nM p53, and 0.5 μM ATP. The enzymatic reaction is stopped by the addition of EDTA. […] Following signal development for 2 h the plates are analyzed in an EnVision (PerkinElmer) microplate reader using the TRF mode with laser excitation. […] Data are processed employing the Genedata Screener software. In particular, IC50 values are determined in the usual manner by fitting a dose-response curve to the data points using nonlinear regression analysis.
A general note: TR-FRET usually uses a lanthanide donor and a delayed reading to cut background.

For assay [2], the system named is phosphorylation of Chk1 (Ser 345) in HT29 colon adenocarcinoma cells. As to the kind of experiment: pCHK1 cellular assay. Type of assay: cell-based. The conditions noted are these: Homo sapiens, HT-29, Table 1, class symbols, hydroxyurea. An excerpt: Chk1 kinase acts downstream of ATR and has a key role in DNA damage checkpoint control. Activation of Chk1 involves phosphorylation of Ser317 and Ser345 (regarded as the preferential target for phosphorylation/activation by ATR) and occurs in response to blocked DNA replication and certain forms of genotoxic stress. Phosphorylation at Ser 345 serves to localize Chk1 to the nucleus following checkpoint activation.
This assay measures a decrease in phosphorylation of Chk1 (Ser 345) in HT29 colon adenocarcinoma cells following treatment with compound and hydroxyurea (which promotes fork stalling because of dNTP depletion) and using an immunocytochemical procedure and high content imaging.
For the assay HT29 cells are plated in culture medium (DMEM high Glucose (no phenol red), 2 mM Glutamax, 1 mM Pyruvate, 10% FCS into Greiner 384 well plates, black, μclear #781090 (2500 cells/well/30 μl) and incubated for at least 20 hours at 37° C., 10% CO2 and 90% rH. Diluted test compounds (1 nM-30 μM final) and hydroxyurea (3 mM final) are added simultaneously and cells are incubated for 4 h at 37° C. After fixation/prmeabilisation with 100% MeOH (−20° C. cold) and permeabilisation with 0.2% Triton X-100 a complete immunocytochemical procedure is performed using a specific anti-pChk1 antibody (Cell Signaling, #2348BF) and fluorescently labelled secondary antibody (Alexa Fluor® 488 goat anti-rabbit F(ab′)2 fragment, Invitrogen A11070) and parallel nuclear staining for cell counting.
The nuclear localised pChk1 signal is detected on an ImageXpress Ultra confocal high content reader and reported as % positive cells (nuclei).

Where [3] appears, read: Table 1, class symbols, read-out: ATR-ATRIP IC50.

T1 sequence (Q13535 whole entry): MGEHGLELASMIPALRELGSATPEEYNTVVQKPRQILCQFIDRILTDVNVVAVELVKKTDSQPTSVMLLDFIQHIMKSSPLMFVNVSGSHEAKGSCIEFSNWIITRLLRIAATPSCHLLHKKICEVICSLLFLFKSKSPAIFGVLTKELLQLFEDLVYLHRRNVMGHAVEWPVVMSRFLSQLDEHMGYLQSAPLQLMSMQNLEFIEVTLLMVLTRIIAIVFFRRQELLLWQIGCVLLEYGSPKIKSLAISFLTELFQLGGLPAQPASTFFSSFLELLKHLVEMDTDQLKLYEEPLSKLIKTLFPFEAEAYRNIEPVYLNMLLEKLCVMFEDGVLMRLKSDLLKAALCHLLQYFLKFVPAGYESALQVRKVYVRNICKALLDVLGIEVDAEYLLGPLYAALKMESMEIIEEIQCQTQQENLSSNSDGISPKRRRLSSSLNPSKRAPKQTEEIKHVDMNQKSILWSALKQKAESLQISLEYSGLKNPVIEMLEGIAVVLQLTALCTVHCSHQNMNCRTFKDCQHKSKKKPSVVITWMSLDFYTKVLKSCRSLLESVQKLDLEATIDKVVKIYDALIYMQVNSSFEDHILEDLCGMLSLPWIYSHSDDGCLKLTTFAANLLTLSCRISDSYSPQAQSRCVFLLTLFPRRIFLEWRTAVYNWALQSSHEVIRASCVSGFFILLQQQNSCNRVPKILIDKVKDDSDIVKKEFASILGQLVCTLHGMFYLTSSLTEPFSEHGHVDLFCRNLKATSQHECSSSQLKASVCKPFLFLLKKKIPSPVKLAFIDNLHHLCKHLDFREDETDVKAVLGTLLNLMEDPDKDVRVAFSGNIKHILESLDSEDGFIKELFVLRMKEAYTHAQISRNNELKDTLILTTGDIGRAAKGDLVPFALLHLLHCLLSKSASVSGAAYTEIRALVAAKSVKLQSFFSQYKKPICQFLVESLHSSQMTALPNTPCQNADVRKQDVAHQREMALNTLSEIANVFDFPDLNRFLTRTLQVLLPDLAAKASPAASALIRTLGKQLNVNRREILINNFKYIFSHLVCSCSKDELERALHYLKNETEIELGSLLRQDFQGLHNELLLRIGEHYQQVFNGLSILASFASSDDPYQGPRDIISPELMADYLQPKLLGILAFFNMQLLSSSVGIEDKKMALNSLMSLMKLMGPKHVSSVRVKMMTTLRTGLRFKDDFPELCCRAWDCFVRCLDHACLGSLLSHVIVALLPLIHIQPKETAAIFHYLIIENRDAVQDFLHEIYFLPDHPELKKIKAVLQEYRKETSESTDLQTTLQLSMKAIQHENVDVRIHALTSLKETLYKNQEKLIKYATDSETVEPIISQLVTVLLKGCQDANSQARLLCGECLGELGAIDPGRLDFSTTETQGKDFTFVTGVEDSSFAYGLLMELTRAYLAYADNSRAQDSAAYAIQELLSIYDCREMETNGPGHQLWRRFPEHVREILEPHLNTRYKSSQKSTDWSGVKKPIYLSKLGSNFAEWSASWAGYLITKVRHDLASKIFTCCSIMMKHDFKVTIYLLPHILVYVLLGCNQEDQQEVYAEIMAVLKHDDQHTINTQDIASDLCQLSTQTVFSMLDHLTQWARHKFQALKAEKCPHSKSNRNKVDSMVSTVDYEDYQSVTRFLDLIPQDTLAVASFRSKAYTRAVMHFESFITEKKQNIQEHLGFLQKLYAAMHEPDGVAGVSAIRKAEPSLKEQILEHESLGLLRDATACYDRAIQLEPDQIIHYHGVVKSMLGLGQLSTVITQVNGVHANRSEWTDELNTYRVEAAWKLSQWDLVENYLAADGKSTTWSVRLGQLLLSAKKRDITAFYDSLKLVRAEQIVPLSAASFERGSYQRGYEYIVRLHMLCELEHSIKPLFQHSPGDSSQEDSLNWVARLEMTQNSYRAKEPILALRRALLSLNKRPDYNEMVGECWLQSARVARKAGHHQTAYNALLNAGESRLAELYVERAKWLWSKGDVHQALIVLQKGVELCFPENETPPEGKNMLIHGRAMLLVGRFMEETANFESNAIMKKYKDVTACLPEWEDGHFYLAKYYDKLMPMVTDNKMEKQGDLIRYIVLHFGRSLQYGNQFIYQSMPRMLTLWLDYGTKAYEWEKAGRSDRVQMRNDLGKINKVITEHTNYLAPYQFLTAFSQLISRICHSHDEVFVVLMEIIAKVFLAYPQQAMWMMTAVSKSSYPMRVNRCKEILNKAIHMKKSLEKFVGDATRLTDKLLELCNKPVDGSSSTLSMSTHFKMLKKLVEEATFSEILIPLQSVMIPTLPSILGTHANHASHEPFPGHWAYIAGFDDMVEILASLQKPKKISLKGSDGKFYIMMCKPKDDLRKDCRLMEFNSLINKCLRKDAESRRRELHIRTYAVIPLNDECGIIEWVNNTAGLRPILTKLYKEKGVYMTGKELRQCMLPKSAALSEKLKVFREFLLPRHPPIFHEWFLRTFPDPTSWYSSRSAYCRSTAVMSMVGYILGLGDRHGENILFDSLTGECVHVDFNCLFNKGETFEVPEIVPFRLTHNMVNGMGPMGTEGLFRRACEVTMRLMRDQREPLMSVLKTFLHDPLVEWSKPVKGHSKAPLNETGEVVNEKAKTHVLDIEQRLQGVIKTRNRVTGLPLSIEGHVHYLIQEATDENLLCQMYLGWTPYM
T1 sequence (Q8WXE1 whole entry partner): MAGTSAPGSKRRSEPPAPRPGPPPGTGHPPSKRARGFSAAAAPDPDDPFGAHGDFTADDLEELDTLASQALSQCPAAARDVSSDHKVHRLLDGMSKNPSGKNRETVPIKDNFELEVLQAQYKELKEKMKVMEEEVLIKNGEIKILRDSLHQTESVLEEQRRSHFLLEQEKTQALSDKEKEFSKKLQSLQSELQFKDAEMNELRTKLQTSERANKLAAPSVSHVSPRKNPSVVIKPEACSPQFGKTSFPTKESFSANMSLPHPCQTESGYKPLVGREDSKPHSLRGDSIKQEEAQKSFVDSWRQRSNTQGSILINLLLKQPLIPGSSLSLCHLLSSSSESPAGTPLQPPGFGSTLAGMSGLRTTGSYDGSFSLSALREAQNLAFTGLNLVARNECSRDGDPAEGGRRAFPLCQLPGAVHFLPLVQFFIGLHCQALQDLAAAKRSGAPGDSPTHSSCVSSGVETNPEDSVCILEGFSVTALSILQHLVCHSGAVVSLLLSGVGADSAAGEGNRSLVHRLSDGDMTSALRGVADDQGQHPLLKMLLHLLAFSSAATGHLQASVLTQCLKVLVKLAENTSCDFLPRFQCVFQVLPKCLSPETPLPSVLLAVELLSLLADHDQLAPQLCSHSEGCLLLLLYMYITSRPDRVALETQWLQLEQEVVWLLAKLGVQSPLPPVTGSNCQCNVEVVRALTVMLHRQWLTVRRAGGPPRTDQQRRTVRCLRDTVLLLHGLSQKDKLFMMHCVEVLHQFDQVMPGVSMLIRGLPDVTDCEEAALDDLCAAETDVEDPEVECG

As for `C[C@@H]1COC[C@H]2COc3c(nc(-c4ccc(CN)cc4)nc3C(C)(C)S(C)(=O)=O)N21` [A46, 4-[(5R,8aS)-1-(1-methanesulfonyl-1-methyl-ethyl)-5-methyl-5,6,8a,9-tetrahydro-8H-7,10-dioxa-2,4,4b-triaza-phenanthren-3-yl]-benzylamine], the concentration for half-maximal inhibition (IC50) in assay [1] (setting [3]) is under 1 nM; in assay [2], 10 to 100 nM.
For `C[C@@H]1COC[C@H]2COc3c(nc(-c4ccc(-c5ncc[nH]5)cc4)nc3C(C)(C)S(C)(=O)=O)N21` [A44, (10S,14R)-4-[4-(1H-imidazol-2-yl)phenyl]-6-(2-methanesulfonylpropan-2-yl)-14-methyl-8,12-dioxa-1,3,5-triazatricyclo[8.4.0.0^2,7]tetradeca-2,4,6-triene], the IC50 was under 1 nM in assay [1] (setting [3]) and 100 to 1000 nM in assay [2].
Consider `C[C@@H]1COC[C@H]2COc3c(nc(-c4cccc(C5(N)COC5)c4)nc3C(C)(C)S(C)(=O)=O)N21` [A64, 3-{3-[(5R,8aS)-1-(1-methanesulfonyl-1-methyl-ethyl)-5-methyl-5,6,8a,9-tetrahydro-8H-7,10-dioxa-2,4,4b-triaza-phenanthren-3-yl]-phenyl}-oxetan-3-ylamine], for which the IC50 lay within 500 to 30000 nM in assay [1] (setting [3]) and 1000 to 30000 nM in assay [2].
Turning to `CCNc1cnc2[nH]ccc2c1-c1nc2c(c(C(C)(C)S(C)(=O)=O)n1)OC[C@@H]1COC[C@@H](C)N21` [A90, ethyl-{4-[(S)-1-(1-methanesulfonyl-1-methyl-ethyl)-5-(R)-methyl-5,6,8a,9-tetrahydro-8H-7,10-dioxa-2,4,4b-triaza-phenanthren-3-yl]-1H-pyrrolo[2,3-b]pyridin-5-yl}-amine], the IC50 was in the range of 1 to 10 nM in assay [1] (setting [3]) and 10 to 100 nM in assay [2].
`C[C@@H]1COC[C@H]2COc3c(nc(-c4cc5cc(F)ncc5[nH]4)nc3C(C)(C)S(C)(=O)=O)N21` [A67, (5R,8aS)-3-(5-fluoro-1H-pyrrolo[2,3-c]pyridin-2-yl)-1-(1-methanesulfonyl-1-methyl-ethyl)-5-methyl-5,6,8a,9-tetrahydro-8H-7,10-dioxa-2,4,4b-triaza-phenanthrene]: the IC50 lay within 10 to 100 nM in assay [1] (setting [3]) and 1000 to 30000 nM in assay [2].
On to `[2H]C([2H])([2H])Nc1cnc2[nH]ccc2c1-c1nc2c(c(C(C)(C)S(C)(=O)=O)n1)OC[C@@H]1COC[C@@H](C)N21` [A42, 4-[(10S,14R)-6-(2-methanesulfonylpropan-2-yl)-14-methyl-8,12-dioxa-1,3,5-triazatricyclo[8.4.0.0^2,7]tetradeca-2,4,6-trien-4-yl]-N-(^2H3)methyl-1H-pyrrolo[2,3-b]pyridin-5-amine], for which the IC50 in assay [1] (setting [3]) lay within 1 to 10 nM; in assay [2], 10 to 100 nM.
On to `CNc1nc2ccccc2n1-c1nc2c(c(C(C)(C)S(C)(=O)=O)n1)OC[C@H]1COC[C@@H](C)N21` [A8, {1-[(5R,8aR)-1-(1-Methanesulfonyl-1-methyl-ethyl)-5-methyl-5,6,8a,9-tetrahydro-8H-7,10-dioxa-2,4,4b-triaza-phenanthren-3-yl]-1H-benzimidazol-2-yl}-methyl-amine], for which the IC50 in assay [1] (setting [3]) is 1 to 10 nM; in assay [2] it was 100 to 1000 nM.
Turning to `C[C@@H]1COC[C@H]2COc3c(nc(-c4c(N)cnc5[nH]ccc45)nc3C3(S(C)(=O)=O)CC3)N21` [A37, 4-[(10S,14R)-6-(1-methanesulfonylcyclopropyl)-14-methyl-8,12-dioxa-1,3,5-triazatricyclo[8.4.0.0^2,7]tetradeca-2,4,6-trien-4-yl]-1H-pyrrolo[2,3-b]pyridin-5-amine], the IC50 is under 1 nM in assay [1] (setting [3]) and 100 to 1000 nM in assay [2].
Turning to `C[C@@H]1COC[C@H]2COc3c(nc(-c4cccc(C5(CO)CN5)c4)nc3C(C)(C)S(C)(=O)=O)N21` (stereo partly drawn) [A63, (2-{3-[(5R,8aS)-1-(1-methanesulfonyl-1-methyl-ethyl)-5-methyl-5,6,8a,9-tetrahydro-8H-7,10-dioxa-2,4,4b-triaza-phenanthren-3-yl]-phenyl}-aziridin-2-yl)-methanol], the IC50 in assay [1] was 500 to 30000 nM; in assay [2], 1000 to 30000 nM.
Turning to `C[C@@H]1COC[C@H]2COc3c(nc(Nc4cn[nH]n4)nc3C(C)(C)S(C)(=O)=O)N21` [A69, [(5R,8aS)-1-(1-methanesulfonyl-1-methyl-ethyl)-5-methyl-5,6,8a,9-tetrahydro-8H-7,10-dioxa-2,4,4b-triaza-phenanthren-3-yl]-(2H[1,2,3]triazol-4-yl)-amine], the IC50 in assay [1] (setting [3]) is 10 to 100 nM; in assay [2], 100 to 1000 nM.
Taken in the same sequence, the figures for `C[C@@H]1COC[C@H]2COc3c(nc(Nc4ccn[nH]4)nc3C(C)(C)S(C)(=O)=O)N21` [A73, [(5R,8aS)-1-(1-methanesulfonyl-1-methyl-ethyl)-5-methyl-5,6,8a,9-tetrahydro-8H-7,10-dioxa-2,4,4b-triaza-phenanthren-3-yl]-(2H-pyrazol-3-yl)-amine] were under 1 nM and 10 to 100 nM.
On to `C[C@@H]1COC[C@H]2COc3c(nc(-c4ccc5nc(N)ncc5c4)nc3C(C)(C)S(C)(=O)=O)N21` [A78, 6-[(5R,8aS)-1-(1-methanesulfonyl-1-methyl-ethyl)-5-methyl-5,6,8a,9-tetrahydro-8H-7,10-dioxa-2,4,4b-triaza-phenanthren-3-yl]-quinazolin-2-ylamine], for which the 50% inhibitory concentration (IC50) in assay [1] (setting [3]) was in the range of 10 to 100 nM; in assay [2], 100 to 1000 nM.
On to `CC(=O)Nc1nc2ccccc2n1-c1nc2c(c(C(C)(C)S(C)(=O)=O)n1)OC[C@@H]1COC[C@@H](C)N21` [A34, N-{1-[(10S,14R)-6-(2-Methanesulfonylpropan-2-yl)-14-methyl-8,12-dioxa-1,3,5-triazatricyclo[8.4.0.0^2,7]tetradeca-2,4,6-trien-4-yl]-1H-1,3-benzodiazol-2-yl}acetamide], for which the values for the 50% inhibitory concentration (IC50) in assay [1] (setting [3]) and in assay [2] were under 1 nM and 10 to 100 nM, respectively.
Turning to `C[C@@H]1COC[C@H]2COc3c(nc(-c4c(F)ncc5[nH]ccc45)nc3C(C)(C)S(C)(=O)=O)N21` [A29, (5R,8aS)-3-(5-Fluoro-1H-pyrrolo[2,3-c]pyridin-4-yl)-1-(1-methanesulfonyl-1-methyl-ethyl)-5-methyl-5,6,8a,9-tetrahydro-8H-7,10-dioxa-2,4,4b-triaza-phenanthrene], the results for the IC50 in assay [1] (setting [3]) and in assay [2] were under 1 nM and 10 to 100 nM, respectively.
With `C[C@@H]1COC[C@H]2COc3c(nc(-c4ccc(C5(CO)CN5)cc4)nc3C(C)(C)S(C)(=O)=O)N21` (stereo partly drawn) [A61, (2-{4-[(5R,8aS)-1-(1-methanesulfonyl-1-methyl-ethyl)-5-methyl-5,6,8a,9-tetrahydro-8H-7,10-dioxa-2,4,4b-triaza-phenanthren-3-yl]-phenyl}-aziridin-2-yl)-methanol], the IC50 is 500 to 30000 nM in assay [1] and 1000 to 30000 nM in assay [2].
Regarding `C[C@@H]1COC[C@H]2COc3c(nc(-c4cncc5[nH]ccc45)nc3C(C)(C)S(C)(=O)=O)N21` [A39, (5R,8aS)-1-(1-methanesulfonyl-1-methyl-ethyl)-5-methyl-3-(1H-pyrrolo[2,3-c]pyridin-4-yl)-5,6,8a,9-tetrahydro-8H-7,10-dioxa-2,4,4b-triaza-phenanthrene], the values for the IC50 in assay [1] (setting [3]) and in assay [2] were under 1 nM and 10 to 100 nM, respectively.
Take `C[C@@H]1COC[C@H]2COc3c(nc(-c4cccc5c4CS(=O)(=O)N5)nc3C(C)(C)S(C)(=O)=O)N21` [A87, 4-[(10S,14R)-6-(2-methanesulfonylpropan-2-yl)-14-methyl-8,12-dioxa-1,3,5-triazatricyclo[8.4.0.0^{2,7}]tetradeca-2,4,6-trien-4-yl]-1,3-dihydro-2lambda6,1-benzothiazole-2,2-dione]: the half-inhibitory concentration (IC50) in assay [1] (setting [3]) was in the range of 10 to 100 nM.
